For one series, the system named is IκB. Put plainly: Western blot of phosphorylated IκB. Conditions: 1 h. It counts as cell-based, murine. The method, then: (§1) The murine macrophage cell line RAW 264.7 was purchased from ATCC (Manassas, Va.) and maintained in DMEM (Life Technologies, Carlsbad, Calif.) supplemented with 10% FBS. Soluble CFZ or isolated CLDIs were added at various concentrations in DMEM with 5% FBS to 6-well plates containing 4×10^5 cells/well and incubated (24 h at 37° C. and 5% CO2). Culture supernatants were harvested at 24 h, centrifuged (1500×g for 5 min), and stored (−20° C.) in frozen aliquots prior to analysis. For experiments involving TLR stimulation, cells were washed twice with pre-warmed DPBS to remove extracellular, non-phagocytosed CLDIs or CFZ, and then the cells were serum-starved for 18 h in DMEM. Supernatants were collected from unstimulated cells and cells stimulated with 200 ng/ml Pam3 or 1 μg/ml LPS in DMEM.
Background: A western blot detects proteins with antibodies after separation by electrophoresis.

A further series has as its system TNFα. The experiment in a line: TNFα ELISA, non-stimulated cells. In kind it is cell-based, murine. The conditions noted are these: non-stimulated RAW 264.7 cells. How it is done:
as §1
The media of cells with or without 6 h TLR stimulation by Pam3 or LPS was harvested, and TNFα and IL-1RA levels were measured by ELISA (Duoset, R&D Systems, Minneapolis, Minn.) in duplicate wells according to the manufacturer's instructions. The cytokine concentrations were expressed as picogram per milligram of cell lysate. Experiments were repeated three times and values are expressed as the mean±SD.
(ELISA stands for enzyme-linked immunosorbent assay.)

Series [1] relates to alveolar macrophages (CD11c) and neutrophils (Ly6G). Put plainly: Flow cytometry of alveolar exudate of drug fed mice. In kind it is in vivo. The conditions noted are these: 8 weeks. The text has this:
Mice (4 week old, male C57Bl6) were purchased from the Jackson Laboratory (Bar Harbor, Me.) and acclimatized for 1 week in a specific-pathogen-free animal facility. Animal care was provided by the University of Michigan's Unit for Laboratory Animal Medicine (ULAM) and the experimental protocol was approved by the Committee on Use and Care of Animals in accordance with NIH guidelines. An oral diet containing CFZ was fed to mice as previously described (Baik J, et al., Antimicrob. Agents Chemother. 2013; 57:1218-30; Baik J, et al., PLoS One 2012; 7:e47494; Keswani R K, et al., Mol. Pharm. 2015:10). […]
Mice were euthanized as described above and the trachea was surgically exposed and cannulated with an 18G luer stub and the lungs were lavaged to obtain alveolar exudate by instilling calcium- and magnesium-free Dulbecco's PBS (DPBS) containing 0.5 mM EDTA in 1-ml aliquots for a total of 6 ml. […] Viable (using Trypan Blue staining method) and CLDI containing cells were counted using a hemocytometer.
Peritoneal and alveolar lavage was performed as stated before to obtain the respective exudates. […] For CLDI fluorescence signal experiments, cells were pelleted by centrifugation (100×g for 5 min) followed by resuspension in PBS+5% FBS (500 μl). […] These cells also had extremely high side-scatter that were measured as saturated signals. […]
Background: In flow cytometry, cells or beads pass a laser one at a time.

The next series deals with alveolar macrophages. The arrangement: species or system mice. The conditions noted are these: mouse, in vivo, 6 weeks. How it is done:
Clofazimine (CFZ, Sigma-Aldrich, C8895) was prepared in sesame oil (Shirakiku, Japan, or Roland, China) and Powdered Lab Diet 5001 (PMI International, Inc., St. Louis, Mo.) and orally administrated to Wild-type (WT) C57BL/6 mice or IL-1RA^−/− (4-5 week old, Jackson Laboratory, Bar Harbor, Me.) for up to 8 weeks ad libitum as previously described (Baik et al., 2013, supra; Baik et al., 2011, supra). Control mice were fed with the same diet without CFZ. The animal protocol was approved by the University of Michigan's Animal Care and Use Committee in accordance with the National Institutes of Health guidelines (UCUCA #PRO0005111).
PBS/LPS-instilled CFZ- or control mice were euthanized by exsanguination while deeply anesthetized with an intraperitoneal injection of ketamine/xylazine. The trachea was surgically exposed and cannulated with an 18 G needle and the lungs were lavaged by instilling 1 ml DPBS (Life Technologies) containing 0.5 mM EDTA (Sigma). The retrieved BAL was then centrifuged (10 min at 400×g, 4° C.), and the supernatant was frozen (−80° C.), while the cell pellets were resuspended in 1 ml RPMI 1640 media (Life Technologies). To count total cells, the cells were stained with Trypan blue and counted using a hemocytometer. […]

One compound from patent US20160220710A1, “COMPOSITIONS AND METHODS FOR DELIVERING PHARMACEUTICAL AGENTS” (THE REGENTS OF THE UNIVERSITY OF MICHIGAN, priority 2015, published 2016) can be followed below.

SMILES strings stand for the structures. Like-named read-outs stand apart in the source and are kept apart here.

`CC(C)/N=c1\cc2n(-c3ccc(Cl)cc3)c3ccccc3nc-2cc1Nc1ccc(Cl)cc1` [CFZ, 3-(p-chloroanilino)-10-(p-chlorophenyl)-2, 10-dihydro-2-isopropyliminophenazine]: the IκB phosphorylation result with IκB (LPS stimulation) is “inhibited LPS/TLR4-mediated IκB phosphorylation”; in the series on IκB (Pam3 stimulation), “the Pam3/TLR2-mediated response was not affected”. Further, the “TNFα production on their own” value in the series with TNFα is given as “failed to induce TNFα production”. The “% of CLDI(+) cells that are CD11c(+)” value in series [1] is given as above 99%. Besides, the “% of Ly6G(+) cells detected as CLDI+” value in series [1] is below 2%. Further, the results for the “CLDI+ alveolar macrophages” value in the series on alveolar macrophages (C57BL/6 (wild-type)) and in the series on alveolar macrophages (IL-1RA−/−) were 65% and 60%, respectively.
